Residue numbers refer to the chain shown, from its start.
Legend:
[1] = target: T1, Peroxisome proliferator-activated receptor alpha (Rattus norvegicus, UniProt P37230)
T1 sequence (P37230 whole entry): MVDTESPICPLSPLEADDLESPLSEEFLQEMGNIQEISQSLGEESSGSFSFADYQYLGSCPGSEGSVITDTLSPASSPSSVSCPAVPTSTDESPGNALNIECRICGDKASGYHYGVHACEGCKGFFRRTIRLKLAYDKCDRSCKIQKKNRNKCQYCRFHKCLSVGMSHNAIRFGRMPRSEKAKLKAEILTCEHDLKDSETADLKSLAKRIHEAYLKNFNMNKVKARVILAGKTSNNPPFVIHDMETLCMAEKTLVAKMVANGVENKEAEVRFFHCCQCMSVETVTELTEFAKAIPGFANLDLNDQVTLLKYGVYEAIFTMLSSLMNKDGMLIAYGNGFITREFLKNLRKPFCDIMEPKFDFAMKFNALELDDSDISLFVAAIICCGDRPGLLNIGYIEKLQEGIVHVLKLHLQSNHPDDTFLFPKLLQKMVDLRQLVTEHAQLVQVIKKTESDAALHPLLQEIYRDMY

[2] = target: T2, Peroxisome proliferator-activated receptor alpha (Mus musculus, UniProt P23204)
T2 sequence (P23204 whole entry): T1 sequence (P37230 whole entry) with L41I, S50G, A85V, V86I, T88A, N96S, A135V, A207G, N265D

[3] = target: T3, Peroxisome proliferator-activated receptor alpha (Mesocricetus auratus, UniProt Q7TNH1)
T3 sequence (Q7TNH1 whole entry): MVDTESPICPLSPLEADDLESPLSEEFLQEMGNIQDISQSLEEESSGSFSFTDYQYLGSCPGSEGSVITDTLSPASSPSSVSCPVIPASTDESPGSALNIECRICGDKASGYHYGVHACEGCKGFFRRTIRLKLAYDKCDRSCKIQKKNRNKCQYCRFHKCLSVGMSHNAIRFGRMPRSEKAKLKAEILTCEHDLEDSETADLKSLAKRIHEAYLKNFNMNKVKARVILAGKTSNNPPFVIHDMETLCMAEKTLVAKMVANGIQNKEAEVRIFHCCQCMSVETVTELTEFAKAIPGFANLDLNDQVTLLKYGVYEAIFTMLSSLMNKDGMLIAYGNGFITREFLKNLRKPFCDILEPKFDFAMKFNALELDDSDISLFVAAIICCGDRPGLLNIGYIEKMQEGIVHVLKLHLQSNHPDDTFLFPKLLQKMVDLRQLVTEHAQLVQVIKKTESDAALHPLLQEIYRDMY

[4] = target: T4, Peroxisome proliferator-activated receptor delta (Homo sapiens, UniProt Q03181)
T4 sequence (Q03181 whole entry): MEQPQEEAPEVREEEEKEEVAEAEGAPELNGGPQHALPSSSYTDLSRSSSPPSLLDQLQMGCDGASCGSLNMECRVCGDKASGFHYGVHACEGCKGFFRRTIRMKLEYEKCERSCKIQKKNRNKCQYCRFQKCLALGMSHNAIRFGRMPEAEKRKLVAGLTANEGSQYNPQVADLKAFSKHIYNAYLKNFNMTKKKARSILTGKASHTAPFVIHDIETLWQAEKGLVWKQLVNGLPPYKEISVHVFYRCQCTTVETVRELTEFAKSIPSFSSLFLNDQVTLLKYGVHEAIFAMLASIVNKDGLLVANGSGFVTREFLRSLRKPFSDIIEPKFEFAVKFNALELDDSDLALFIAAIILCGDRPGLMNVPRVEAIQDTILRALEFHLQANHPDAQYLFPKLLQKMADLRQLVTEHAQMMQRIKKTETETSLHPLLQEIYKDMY

[5] = target: T5, Peroxisome proliferator-activated receptor gamma (Homo sapiens, UniProt P37231); assay: PPAR gamma Fluorescence Polarization Assay; details: pH 8; 22 °C
T5 sequence (P37231 whole entry): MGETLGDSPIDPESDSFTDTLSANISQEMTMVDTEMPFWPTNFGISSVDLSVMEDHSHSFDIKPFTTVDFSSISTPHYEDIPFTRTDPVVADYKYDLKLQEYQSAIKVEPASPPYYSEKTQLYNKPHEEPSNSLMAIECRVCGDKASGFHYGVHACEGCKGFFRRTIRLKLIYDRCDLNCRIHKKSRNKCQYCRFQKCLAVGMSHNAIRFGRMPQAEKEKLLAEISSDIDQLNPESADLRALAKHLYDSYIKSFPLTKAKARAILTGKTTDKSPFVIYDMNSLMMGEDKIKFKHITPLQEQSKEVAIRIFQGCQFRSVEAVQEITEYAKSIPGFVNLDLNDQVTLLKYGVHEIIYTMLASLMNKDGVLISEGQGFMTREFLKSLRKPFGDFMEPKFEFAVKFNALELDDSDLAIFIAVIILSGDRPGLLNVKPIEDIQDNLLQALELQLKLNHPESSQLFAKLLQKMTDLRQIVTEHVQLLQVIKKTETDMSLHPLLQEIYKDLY

[6] = target: T6, Peroxisome proliferator-activated receptor alpha (Homo sapiens, UniProt Q07869); assay: PPAR alpha Fluorescence Polarization Assay; details: pH 8; 22 °C
T6 sequence (Q07869 whole entry): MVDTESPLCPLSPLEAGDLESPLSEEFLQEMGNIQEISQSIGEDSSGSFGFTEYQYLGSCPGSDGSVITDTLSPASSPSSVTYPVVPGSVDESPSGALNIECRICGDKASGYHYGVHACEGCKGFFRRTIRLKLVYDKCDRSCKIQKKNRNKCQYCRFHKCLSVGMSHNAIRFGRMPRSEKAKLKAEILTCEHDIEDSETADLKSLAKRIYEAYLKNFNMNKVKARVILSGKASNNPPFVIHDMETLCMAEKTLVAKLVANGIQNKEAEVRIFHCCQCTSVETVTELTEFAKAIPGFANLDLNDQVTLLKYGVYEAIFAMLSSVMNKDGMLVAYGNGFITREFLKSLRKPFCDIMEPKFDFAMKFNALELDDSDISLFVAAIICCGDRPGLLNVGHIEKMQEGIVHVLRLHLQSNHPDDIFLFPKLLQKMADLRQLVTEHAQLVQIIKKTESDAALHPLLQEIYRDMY

EC50 [1] [µM] | EC50 [2] [µM] | EC50 [3] [µM] | EC50 [4] [µM] | IC50 [5] [µM] | IC50 [6] [µM] | EC50 [6] [µM] | SMILES
0.317 |  |  |  |  |  |  | COC(=O)N(CC(=O)O)Cc1cccc(OCc2nc(-c3ccc(Cl)cc3)oc2C)c1 [2-{[(3-{[2-(4-chlorophenyl)-5-methyl-1,3-oxazol-4-yl]methoxy}phenyl)methyl](methoxycarbonyl)amino}acetic acid]
0.123 | 0.145 | 0.178 | > 25 | > 15 | 0.097 |  | COC(=O)N(CC(=O)O)Cc1cc(OCc2nc(-c3ccc(Cl)cc3)oc2C)ccc1F [2-{[(5-{[2-(4-chlorophenyl)-5-methyl-1,3-oxazol-4-yl]methoxy}-2-fluorophenyl)methyl](methoxycarbonyl)amino}acetic acid]
17.7 | 18.5 | 28.7 |  |  | > 98.4 | 11.6 | CC(Oc1ccc(Oc2ccc(Cl)cc2)cc1)C(=O)O (configuration not stated) [Clofop]

— BindingDB's records for doi:10.1124/jpet.108.143271 (Bristol-Myers Squibb, 2008)
